Experimental data as given in patent publication US8778966B2, “Quinolinone derivatives as PARP and tank inhibitors” (Janssen Pharmaceutica, NV, priority 2007, dated 2014).
Where two headings read alike, the source gives them in different places.

Columns and labels:
PC3 cells = assay: EB1 Comet (microtubule disruption) assay; assay type: cell-based, human; conditions: for minimal effective concentration: Homo sapiens, read-out: EB1 pLAC (converted)
How it was run: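 Readout is loss of Eb1 plus-end foci, scored by immunofluorescence microscopy, in PC3 cells after 1 h compound treatment at 37 °C with 0.6% final DMSO. LAC is defined as the lowest concentration leaving at least 50% of cells without Eb1 foci.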

Human PARP-1 enzyme = target: T1, Human PARP-1 enzyme (Homo sapiens, UniProt P09874); assay: In vitro Scintillation Proximity Assay (SPA) for PARP-1 inhibitory activity; assay type: biochemical; conditions: read-out: in vitro SPA assay PARP-1 pIC50 (converted)
T1 construct: purchased Trevigen
T1 sequence (P09874 whole entry): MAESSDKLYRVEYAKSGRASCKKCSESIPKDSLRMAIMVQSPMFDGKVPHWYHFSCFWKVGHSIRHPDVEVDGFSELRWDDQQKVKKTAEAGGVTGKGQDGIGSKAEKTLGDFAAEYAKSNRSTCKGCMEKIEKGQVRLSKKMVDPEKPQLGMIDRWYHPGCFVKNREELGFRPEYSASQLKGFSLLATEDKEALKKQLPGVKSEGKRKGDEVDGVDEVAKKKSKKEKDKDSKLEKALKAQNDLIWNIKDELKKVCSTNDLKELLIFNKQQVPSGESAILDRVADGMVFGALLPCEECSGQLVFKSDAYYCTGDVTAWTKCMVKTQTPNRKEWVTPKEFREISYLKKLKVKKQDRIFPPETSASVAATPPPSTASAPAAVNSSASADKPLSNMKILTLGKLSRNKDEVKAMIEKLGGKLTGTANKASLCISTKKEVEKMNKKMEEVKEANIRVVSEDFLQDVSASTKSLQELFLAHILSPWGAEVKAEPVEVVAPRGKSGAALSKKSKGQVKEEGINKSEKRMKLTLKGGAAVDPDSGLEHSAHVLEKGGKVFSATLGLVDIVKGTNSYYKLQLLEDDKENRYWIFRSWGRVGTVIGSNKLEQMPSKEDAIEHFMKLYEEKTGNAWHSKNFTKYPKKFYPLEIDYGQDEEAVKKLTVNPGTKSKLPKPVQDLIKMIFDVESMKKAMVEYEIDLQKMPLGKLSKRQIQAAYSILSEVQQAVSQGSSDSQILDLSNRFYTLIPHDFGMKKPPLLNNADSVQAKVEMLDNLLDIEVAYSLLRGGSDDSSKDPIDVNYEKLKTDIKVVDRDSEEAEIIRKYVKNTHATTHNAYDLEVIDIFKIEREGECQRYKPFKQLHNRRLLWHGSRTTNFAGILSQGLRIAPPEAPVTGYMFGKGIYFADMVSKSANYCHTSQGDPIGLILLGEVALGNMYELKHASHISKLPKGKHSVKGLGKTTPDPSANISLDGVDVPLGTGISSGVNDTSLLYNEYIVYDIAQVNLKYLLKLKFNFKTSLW
How it was run: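 SPA assay: nicked-DNA-activated PARP-1 (0.1–0.2 μg/ml) ADP-ribosylates biotinylated histones (2 μg/ml) using [3H]-NAD+, 20 min at RT in Tris pH 8/DTT/MgCl2, stopped with 2 mM NAD+. Blank-subtracted cpm expressed as % control; IC50 by linear interpolation, reported as pIC50 (10−5 to 3×10−9 M tested).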

Structure (SMILES)	minimal effective concentration (PC3 cells; PC-3, 1 h, 1 hour treatment) [µM]	IC50 (Human PARP-1 enzyme) [nM]	minimal effective concentration (PC3 cells; PC-3, 1 hour treatment) [µM]	EB1 pLAC (PC3 cells; 1 hour treatment)
CCc1cc2ccc([C@](C)(C#N)Cc3ccccc3)cc2[nH]c1=O (single isomer, unassigned) [Compound 45]	> 10	316		
CCc1cc2ccc([C@@](C)(C#N)Cc3ccccc3)cc2[nH]c1=O (single isomer, unassigned) [Compound 46]	0.1	316		
CCc1cc2ccc(C(C)(C#N)CC3COc4ccccc4O3)cc2[nH]c1=O (single isomer, unassigned) [Compound 47]		398		
CCc1cc2ccc([C@](C)(C#N)Cc3nc(OC)cc(OC)n3)cc2[nH]c1=O (single isomer, unassigned) [Compound 52]	3.16	200		
CCc1cc2ccc([C@@](C)(C#N)Cc3nc(OC)cc(OC)n3)cc2[nH]c1=O (single isomer, unassigned) [Compound 53]	0.0316	50.1		
CCc1cc2ccc(C(C)(C#N)Cc3cccc(C#C[Si](C)(C)C)c3)cc2[nH]c1=O (stereo not shown) [Compound 1]	1	398		
CCc1cc2ccc(C(C)(C#N)Cc3cccc(CN(C)C)c3)cc2[nH]c1=O (stereo not shown) [Compound 7]	3.16	1000		
CCc1cc2ccc(C(C)(C#N)Cc3cccc(COC)c3)cc2[nH]c1=O (stereo not shown) [Compound 8]	0.316	501		
CCc1cc2ccc(C(C)(C#N)Cc3cccc(CO)c3)cc2[nH]c1=O (stereo not shown) [Compound 9]	1	200		
CC(C#N)(Cc1ccccc1)c1ccc2cc(CO)c(=O)[nH]c2c1 (stereo not shown) [Compound 40]		2510		
CCc1cc2ccc(C(C)(C#N)Cc3c(F)ccc(C)c3F)cc2[nH]c1=O (stereo not shown) [Compound 41]	0.316	1000		
CCc1cc2ccc(C(C)(C#N)Cc3nnsc3Cl)cc2[nH]c1=O (stereo not shown) [Compound 42]	0.1	200		
CCc1cc2ccc(C(C)(C#N)Cc3nc(OC)cc(OC)n3)cc2[nH]c1=O (stereo not shown) [Compound 43]		200		
CCc1cc2ccc(C(C)(C#N)Cc3ccccc3)cc2[nH]c1=O (stereo not shown) [Compound 44]		316		
CCc1cc2ccc(C(C)(C#N)Cc3cccc(Br)c3)cc2[nH]c1=O (stereo not shown) [Compound 49]	0.316	316		
CCOP(=O)(OCC)c1cccc(CC(C)(C#N)c2ccc3cc(CC)c(=O)[nH]c3c2)c1 (stereo not shown) [Compound 50]		2510	0.316	
CCc1cc2ccc(C(C)(C#N)Cc3cccc(C#N)c3)cc2[nH]c1=O (stereo not shown) [Compound 51]	0.316	126		
CCc1cc2ccc(C(C)(C#N)CCOc3ccc([N+](=O)[O-])cc3)cc2[nH]c1=O (stereo not shown) [Compound 54]	0.316	158		
CCc1cc2ccc(C(C)(C#N)Cc3cccc(CN4CCN(C)CC4)c3)cc2[nH]c1=O (stereo not shown) [Compound 57]		3980		
CCc1cc2ccc(C(C)(C#N)Cc3cccc(CN4CCOCC4)c3)cc2[nH]c1=O (stereo not shown) [Compound 58]	3.16	501		
CCc1cc2ccc(C(C)(C#N)Cc3cccc(CNC)c3)cc2[nH]c1=O (stereo not shown) [Compound 59]	10	631		
CCc1cc2ccc(C(C)(C#N)Cc3cccc(CNCCOC)c3)cc2[nH]c1=O (stereo not shown) [Compound 60]		794		

Structure (SMILES)	minimal effective concentration (PC3 cells; PC-3, 1 h, 1 hour treatment) [µM]	IC50 (Human PARP-1 enzyme) [nM]	minimal effective concentration (PC3 cells; PC-3, 1 hour treatment) [µM]	EB1 pLAC (PC3 cells; 1 hour treatment)
CCc1cc2ccc(C(C)(C#N)Cc3cccc(CNCCN4CCOCC4)c3)cc2[nH]c1=O (stereo not shown) [Compound 61]		1000		
CCc1cc2ccc(C(C)(C#N)Cc3cccc(C(=O)NCCOC)c3)cc2[nH]c1=O (stereo not shown) [Compound 62]		501		
CCc1cc2ccc(C(C)(C#N)Cc3cccc(C(=O)N(C)C)c3)cc2[nH]c1=O (stereo not shown) [Compound 63]	3.16	1000		
CCc1cc2ccc(C(C)(C#N)Cc3cccc(N4CCNCC4)c3)cc2[nH]c1=O (stereo not shown) [Compound 64]		794		
CCc1cc2ccc(C(C)(C#N)Cc3cccc(N4CCCCC4)c3)cc2[nH]c1=O (stereo not shown) [Compound 65]		1260		
CCc1cc2ccc(C(C)(C#N)Cc3cccc(N4CCN(C)CC4)c3)cc2[nH]c1=O (stereo not shown) [Compound 66]		1260		
CCc1cc2ccc(C(C)(C#N)Cc3cccc(OCC4CC4)c3)cc2[nH]c1=O (stereo not shown) [Compound 67]	0.316	1000		
CCc1cc2ccc(C(C)(C#N)Cc3cccc(OCCCN4CCOCC4)c3)cc2[nH]c1=O (stereo not shown) [Compound 68]		1000		
CCc1cc2ccc(C(C)(C#N)Cc3cccc(OCCCN4CCN(C)CC4)c3)cc2[nH]c1=O (stereo not shown) [Compound 69]		794		
Cc1cc2ccc(C(C)(C#N)Cc3noc(-c4cccc(C(F)(F)F)c4)n3)cc2[nH]c1=O (stereo not shown) [Compound 70]	3.16	3980		
Cc1cc2ccc(C(C)(C#N)Cc3cc4ccccc4s3)cc2[nH]c1=O (stereo not shown) [Compound 71]	1	3160		
Cc1cc2ccc(C(C)(C#N)Cc3ccc(Cl)s3)cc2[nH]c1=O (stereo not shown) [Compound 72]	0.316	1260		
Cc1cc2ccc(C(C)(C#N)Cc3ccc(C(F)(F)F)o3)cc2[nH]c1=O (stereo not shown) [Compound 73]	1	2000		
Cc1cc2ccc(C(C)(C#N)Cc3cccc4cccnc34)cc2[nH]c1=O (stereo not shown) [Compound 74]	3.16	1000		
Cc1cc2ccc(C(C)(C#N)Cc3nc4ccccc4s3)cc2[nH]c1=O (stereo not shown) [Compound 75]	0.316	1260		
Cc1cc2ccc(C(C)(C#N)Cc3ccccc3)cc2[nH]c1=O (stereo not shown) [Compound 76]	1	1580		
CCc1cc2ccc(C(C)(C#N)Cc3ccc(OC)c(C#N)c3)cc2[nH]c1=O (stereo not shown) [Compound 77]	1	398		
CCc1cc2ccc(C(C)(C#N)Cc3cc(C)ccc3C)cc2[nH]c1=O (stereo not shown) [Compound 78]	0.1	1260		
CCc1cc2ccc(C(C)(C#N)Cc3ccc(F)c(C)c3)cc2[nH]c1=O (stereo not shown) [Compound 79]	1	794		
CCc1cc2ccc(C(C)(C#N)Cc3cc(Cl)ccc3OC)cc2[nH]c1=O (stereo not shown) [Compound 80]	0.1	1000		
CCc1cc2ccc(C(C)(C#N)Cc3cccc(Br)c3C)cc2[nH]c1=O (stereo not shown) [Compound 81]	0.316	1260		
CCc1cc2ccc(C(C)(C#N)Cc3ccc(Cl)c(C(F)(F)F)c3)cc2[nH]c1=O (stereo not shown) [Compound 82]	1	3980		

Structure (SMILES)	minimal effective concentration (PC3 cells; PC-3, 1 h, 1 hour treatment) [µM]	IC50 (Human PARP-1 enzyme) [nM]	minimal effective concentration (PC3 cells; PC-3, 1 hour treatment) [µM]	EB1 pLAC (PC3 cells; 1 hour treatment)
CCc1cc2ccc(C(C)(C#N)Cc3ccc(C)c(F)c3F)cc2[nH]c1=O (stereo not shown) [Compound 83]	1	631		
CCc1cc2ccc(C(C)(C#N)Cc3c(C)cccc3C)cc2[nH]c1=O (stereo not shown) [Compound 84]	1	1260		
CCc1cc2ccc(C(C)(C#N)Cc3nc4ccccc4o3)cc2[nH]c1=O (stereo not shown) [Compound 85]	0.316	126		
CCc1cc2ccc(C(C)(C#N)Cc3csc(C)n3)cc2[nH]c1=O (stereo not shown) [Compound 86]	3.16	501		
CCc1cc2ccc(C(C)(C#N)Cc3ccc4nccnc4c3)cc2[nH]c1=O (stereo not shown) [Compound 87]	3.16	79.4		
CCc1cc2ccc(C(C)(C#N)Cc3c(C)c(C)cc(C)c3C)cc2[nH]c1=O (stereo not shown) [Compound 88]		1580		
CCc1cc2ccc(C(C)(C#N)Cc3c(C)c(C)c(C)c(C)c3C)cc2[nH]c1=O (stereo not shown) [Compound 89]		1580		
CCc1cc2ccc(C(C)(C#N)Cc3cc(Cl)cc4c3OCOC4)cc2[nH]c1=O (stereo not shown) [Compound 90]	1	316		
CCc1cc2ccc(C(C)(C#N)Cc3cc4c(cc3Cl)OCO4)cc2[nH]c1=O (stereo not shown) [Compound 91]	0.1	1260		
CCc1cc2ccc(C(C)(C#N)Cc3cc(Cl)cc4c3OCOC4)cc2[nH]c1=O (stereo not shown) [Compound 92]		251		6
CCc1cc2ccc(C(C)(C#N)Cc3nncn3C)cc2[nH]c1=O (stereo not shown) [Compound 93]		126		
CCc1cc2ccc(C(C)(C#N)Cc3cccc4nnn(C)c34)cc2[nH]c1=O (stereo not shown) [Compound 94]		126		
CCc1cc2ccc(C(C)(C#N)Cc3nn(C)c4ccccc34)cc2[nH]c1=O (stereo not shown) [Compound 95]		251		
CCc1cc2ccc(C(C)(C#N)Cc3cn4ccccc4n3)cc2[nH]c1=O (stereo not shown) [Compound 96]		126		
CCc1cc2ccc(C(C)(C#N)Cc3cccnc3)cc2[nH]c1=O (stereo not shown) [Compound 97]		39.8		
CCc1cc2ccc(C(C)(C#N)Cc3ccncc3)cc2[nH]c1=O (stereo not shown) [Compound 98]		158		
CCc1cc2ccc(C(C)(C#N)Cc3cc(Cl)ccc3Cl)cc2[nH]c1=O (stereo not shown) [Compound 99]	0.1	1000		
CCc1cc2ccc(C(C)(C#N)Cc3ccccc3C#N)cc2[nH]c1=O (stereo not shown) [Compound 101]	1	50.1		
CCc1cc2ccc(C(C)(C#N)Cc3ccccc3OC(F)(F)F)cc2[nH]c1=O (stereo not shown) [Compound 102]	3.16	1580		
CCc1cc2ccc(C(C)(C#N)Cc3ccccc3C(F)(F)F)cc2[nH]c1=O (stereo not shown) [Compound 103]	0.316	1260		
CCc1cc2ccc(C(C)(C#N)CCOc3ccccc3C#N)cc2[nH]c1=O (stereo not shown) [Compound 276]		79.4		
CCc1cc2ccc(C(C)(C#N)CCOc3cc(Cl)c(Cl)cc3Cl)cc2[nH]c1=O (stereo not shown) [Compound 277]		398		
